PMC12584752, “Covalent fragment screening to inhibit the E3 ligase activity of bacterial NEL enzymes SspH1 and SspH2” (RSC Chemical Biology, 2025)

Key:
IpaH9.8 (21–545) = biological target: T1, IpaH9.8 (21–545) (Shigella flexneri, UniProt Q8VSC3); assay: Intact protein LC-MS covalent fragment labelling; type: binding; details: dilution series 100–6.25 μM, 24 hours at 4 °C
T1 construct: Recombinant IpaH9.8 (21–545) and SspH1 (161–700) were incubated at 0.5 μM; His-tag (N, cleaved yes); made in house; host or cells: E. coli BL21
From the text: A diverse library of 227 compounds with chloroacetamide warheads, featuring a diversity of molecular weight (162–321 Da) and clog P (−1.4 to 3.4) (Table S1), were screened against Salmonella and Shigella NEL E3 ligases using our intact protein liquid chromatography mass spectrometry (LC-MS) platform as previously described.[39,40] Briefly, recombinant SspH1 (161–700[30]) and IpaH9.8 (21–545[29]) (Fig. […] 1C). Raw counts were deconvoluted and the labelling percentage calculated by detection and comparison of protein and protein-fragment molecular weights.
Fig. 1 Intact protein LCMS screening of covalent fragment library against NEL proteins. (A) Cartoon depicting conserved NEL E3 ligase domains; (B) overlaid structures of SspH1 (blue, PDB 9H6W[30]) and IpaH9.8 (green, PDB 6LOL[29]) aligned on NEL domain; (C) workflow of covalent fragment screening using intact LC-MS; (D) fragment labelling percentages for SspH1 and IpaH9.8 with fragments 1–3 highlighted. […]
To mitigate the risk of selecting compounds which indiscriminately recognise ubiquitin binding proteins, we next performed preliminary selectivity studies with compounds 6 and 7 against human ubiquitin system proteins. […] In parallel, we tested the compounds against related NEL E3 ligases SspH2 and IpaH9.8. […]

glutathione = assay: Glutathione reactivity assay; type: physicochemical; details: 6 mM glutathione in PBS, 40 °C; read-out: GSH t1/2 (converted)
Protocol: 10 mM DMSO stocks of compounds 6 and 7 were diluted 20-fold with acetonitrile, and then further 5-fold diluted with 6 mM glutathione in PBS. The reaction was shaken before incubation at 40 °C. The reaction mixture was analysed via UPLC-UV-MS up to eight times across 24 hours, compared to known reference compounds and samples of each compound in distilled water. UPLC conditions: flow rate: 800 μL min^−1; column: acquity UPLC BEH C18 1.7 μm 2.1 × 50 mm; column temperature: 37 °C; mobile phase A: 0.1% formic acid in H2O; mobile phase B: 0.1% formic acid in 100% ACN; run time: 2 minutes; gradient elution: 97% A to 0% A; UV conditions: 210 to 350 nm range; MS conditions: single quad, ESI+, scan range: 50–1000 Da. For each time point, the UV peak area of the parent peak was extracted at a single wavelength (e.g., 254 nm). A pseudo-first-order rate constant (k) for each compound was determined from the slope of a linear regression fit for a plot of the […] peak area of the parent compound versus the time differential for the eight time points; the t1/2 is calculated as follows: t1/2 = 0.693/k.

SspH1 (161–700) = SspH1 (161–700) (Salmonella typhimurium, UniProt D0ZVG2); assay: E2–Ub discharge assay; type: biochemical; parameters: Recombinant IpaH9.8 (21–545) and SspH1 (161–700) were incubated at 0.5 μM; His-tag (N, cleaved yes); made in house; host or cells: E. coli BL21; details: SspH1 pre-labelled with compound overnight at RT; UbcH5A–Ub-cy3 1 μM, 0–30 minutes
From the text: We next wanted to understand whether compounds 6 and 7 interfered with SspH1 E3 activity and turned to in vitro assays to assess E3 ligase activity. In the absence of substrate, NEL E3 ligases non-productively discharge ubiquitin from the E2–Ub thioester, a reaction that proceeds via an unstable E3-thioester intermediate.[27] This activity can be followed by E2–Ub discharge assays (Fig. 4A). We compared discharge activity of SspH1 with UbcH5A–Ub-cy3 (E2–Ub*) pre-treated with a DMSO control or compounds 6 or 7 (Fig. 4B). To ensure complete compound labelling, SspH1 was pre-incubated with the compounds overnight at room temperature, as opposed to at 4 °C which enabled us to study kinetics previously.
Fig. 4 SspH1 in vitro inhibition with compounds 6 and 7. (A) Discharge assay schematic; (B) E2–Ub discharge time course assay with SspH1 pre-treated with either DMSO or compounds 6 or 7. UbcH5A–Ub-cy3 (1 μM) was incubated at RT for 0–30 minutes with SspH1 (residues 161–700, 50 nM) which had been pre-labelled with 6 or 7 at RT overnight. (C) Substrate ubiquitination assay schematic; (D) PKN1 ubiquitination time course assay with SspH1 pre-treated with either DMSO or compounds 6 or 7. […]

SspH1 (161–700), sequence (D0ZVG2 161-700): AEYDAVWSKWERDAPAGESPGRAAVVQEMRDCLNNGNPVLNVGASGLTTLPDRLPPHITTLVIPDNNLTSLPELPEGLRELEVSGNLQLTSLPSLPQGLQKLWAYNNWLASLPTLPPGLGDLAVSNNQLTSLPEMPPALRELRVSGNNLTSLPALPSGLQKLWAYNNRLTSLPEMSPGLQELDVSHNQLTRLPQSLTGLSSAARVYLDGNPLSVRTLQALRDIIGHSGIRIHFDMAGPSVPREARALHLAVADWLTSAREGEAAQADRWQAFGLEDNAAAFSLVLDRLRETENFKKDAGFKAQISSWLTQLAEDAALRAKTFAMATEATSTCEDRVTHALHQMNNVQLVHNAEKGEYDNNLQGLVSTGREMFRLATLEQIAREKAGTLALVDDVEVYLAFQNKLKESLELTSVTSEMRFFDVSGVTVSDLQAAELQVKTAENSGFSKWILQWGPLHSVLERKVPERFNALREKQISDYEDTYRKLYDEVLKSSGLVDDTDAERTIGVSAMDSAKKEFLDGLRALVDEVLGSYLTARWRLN
T1 sequence (Q8VSC3 21-545): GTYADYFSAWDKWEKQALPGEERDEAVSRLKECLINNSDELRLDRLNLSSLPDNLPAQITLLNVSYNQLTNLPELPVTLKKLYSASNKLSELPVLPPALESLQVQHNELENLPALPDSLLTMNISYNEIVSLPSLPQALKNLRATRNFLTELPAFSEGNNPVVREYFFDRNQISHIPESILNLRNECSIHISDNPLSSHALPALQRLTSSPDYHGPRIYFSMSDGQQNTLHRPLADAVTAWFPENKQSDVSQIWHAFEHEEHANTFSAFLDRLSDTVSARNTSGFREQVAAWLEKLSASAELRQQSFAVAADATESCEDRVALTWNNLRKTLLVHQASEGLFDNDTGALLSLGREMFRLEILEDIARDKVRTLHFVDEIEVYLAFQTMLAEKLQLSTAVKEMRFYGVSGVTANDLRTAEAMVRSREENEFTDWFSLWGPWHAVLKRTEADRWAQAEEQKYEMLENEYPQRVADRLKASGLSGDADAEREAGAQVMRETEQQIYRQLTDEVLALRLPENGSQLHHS

Compound | labelling of IpaH9.8 (IpaH9.8 (21–545)) | half-life at 100 µM (glutathione) | SspH1 E2–Ub discharge activity (SspH1 (161–700))
Cc1cc(-c2nc3ccccc3n2C2CCN(C(=O)CCl)CC2)cc(C)c1O.Cl [compound 6] | minimal labelling | 4.9 h | completely abrogated
Cl.O=C(CCl)N1CCC(n2c(-c3ccc(C(F)(F)F)cc3)nc3ccccc32)CC1 [compound 7] | minimal labelling | 4 h | completely abrogated
